Data from EP2818471A1, “Nitrogen bicyclic compounds as inhibitors for Scyl1 and Grk5” (Max-Planck-Gesellschaft zur Förderung der Wissenschaften …, priority 2013, dated 2014).

Each compound was assayed on C2C12 cells (assay: 2-NBDG glucose uptake by flow cytometry). Conditions: C2C12, 1 h compound treatment; Figure 10.
Experimental: Furthermore, as internal controls, samples of glucose free media, respectively glucose free media with test compound, were tested. Subsequently, cells were washed, trypsinized and harvested in ice-cold PBS before centrifuged at 1.6 x10^3 rpm at 4°C. Cells were analyzed by flow cytometry (FACS Calibur, BD Bioscience, respectively a BD Accuri® C6 Flow Cytometer).
To investigate the impact of the Grk5 inhibitors on Glucose uptake, cells were cultured 1 h in glucose free media supplied with 100 µM 2-NBDG at 37 °C and 5 % (v/v) CO2. Furthermore, as internal controls, samples of glucose free media, respectively glucose free media with test compounds, were measured. Fluorescence was analyzed by flow cytometer (FACS Calibur, BD Bioscience, respectively a BD Accuri® C6 Flow Cytometer).
NC(=O)c1ccc(-c2cnc3ccc(Cc4ccccc4)nn23)cc1 [compound 2, 4-(6-benzylimidazo[1,2-b]pyridazin-3-yl)benzamide] was tested, and the “uptake of 2-NBDG compared with negative control background” value was “significantly increased uptake of 2-NBDG”.

The compounds below were run on beta-TC6 cells (assay: Insulin release in high glucose medium, rat/mouse insulin ELISA). Conditions: Mus musculus, Beta-TC6, 2 h, high glucose (4.5 g/L) DMEM, Example 9, Figure 6, ± SEM, read-out: increase of insulin release.
Assay type: cell-based
Experimental: Cells were cultured overnight, washed with PBS and then treated with 5 µM of test compounds as well as non-inhibitor controls for 2 h in a high glucose (4.5 g/L) DMEM at 37°C and 5 % (v/v) CO2. Release of insulin was detected using a rat/mouse insulin ELISA.
After incubation, the supernatant of the beta-TC6 insulinoma cells was diluted 1:20, whereas the supernatants of the RIN-T2B-5AH were diluted 1:10. The insulin release was measured with rat/mouse insulin ELISA (Merck Millipore Darmstadt, Cat. # EZRMI-13K) by following the manufacture's protocol. The enzyme activity of the horseradish peroxidase of the immobilized biotinylated antibodies was monitored spectrophotometrically by the increased absorbency at 490 nm, and corrected by the absorbency at 610 nm.
Afterwards, the supernatant was analyzed for insulin using the rat/mouse insulin ELISA (Merck Millipore Darmstadt, Cat. # EZRMI-13K) by following the manufacture's protocol..
Cells were treated for 2 h in a high glucose (4.5 g/L) DMEM media at 37°C and 5 % (v/v) CO2. Insulin release was analyzed using the rat/mouse insulin ELISA.
CC(=O)Nc1cc(-c2cccc(C(=O)NCCO)c2)cn2c(-c3ccc(F)cc3)cnc12 [Cpd c1, reference compound] showed an activation at 5 µM of 1.3 ± 0.3%.

These compounds were tested on beta-TC6 cells (assay: Insulin HTRF assay, relative activity Ar normalized to sunitinib). Conditions: Mus musculus, normalized to positive control sunitinib (5 µM = 100%), Table 10.
Assay type: cell-based
Procedure, shortened: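 Relative activity Ar was scaled between 0% and 100% controls, with sunitinib at 5 µM f.c. as reference. Insulin released by beta-TC6 cells was quantified by sandwich HTRF (Eu-cryptate/XL665 antibodies, 120 min RT). Cells had been seeded 24 or 48 h, then treated 2–4 h at 37°C in induction buffer, 0.5% DMSO.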
In the case of NC(=O)c1ccc(-c2cnc3ccc(Cc4ccccc4)nn23)cc1 [compound 2, 4-(6-benzylimidazo[1,2-b]pyridazin-3-yl)benzamide], the Emax is reported as 20 to 50%. CC(=O)c1cccc(-c2cnc3cnc(-c4cccc(F)c4)cn23)c1 [compound 410, 1-[3-[6-(3-fluorophenyl)imidazo[1,2-a]pyrazin-3-yl]phenyl]ethanone] gave an Emax of 20 to 50%. CC(=O)c1cccc(-c2cnc3cnc(-c4ccc(C(=O)NCCN(C)C)cc4)cn23)c1 [compound 411, 4-[3-(3-acetylphenyl)imidazo[1,2-a]pyrazin-6-yl]-N-(2-dimethylaminoethyl)benzamide] gave an Emax of 20 to 50%. CN(C)c1ccccc1-c1cn2c(-c3cccs3)cnc2cn1 [compound 413, N,N-dimethyl-2-[3-(2-thienyl)imidazo[1,2-a]pyrazin-6-yl]aniline] showed an Emax of 20 to 50%. With c1csc(-c2cnc3cnc(-c4ccncc4)cn23)c1 [compound 414, 6-(4-pyridyl)-3-(2-thienyl)imidazo[1,2-a]pyrazine] the Emax was 20 to 50%. With c1csc(-c2cnc3cnc(-c4ccsc4)cn23)c1 [compound 415, 3-(2-thienyl)-6-(3-thienyl)imidazo[1,2-a]pyrazine] the Emax was 50 to 100%. c1csc(-c2cnc3cnc(-c4cc5ccccc5s4)cn23)c1 [compound 416, 6-(benzothiophen-2-yl)-3-(2-thienyl)imidazo[1,2-a]pyrazine] showed an Emax of 50 to 100%. For Oc1ccc(-c2cn3c(-c4cccs4)cnc3cn2)cc1 [compound 417, 4-[3-(2-thienyl)imidazo[1,2-a]pyrazin-6-yl]phenol], the Emax was 50 to 100%. FC(F)(F)Oc1ccc(-c2cn3c(-c4cccs4)cnc3cn2)cc1 [compound 418, 3-(2-thienyl)-6-[4-(trifluoromethoxy)phenyl]imidazo[1,2-a]pyrazine] was tested, and the Emax was 20 to 50%. Compound C(=C\c1cn2c(-c3cccs3)cnc2cn1)/c1ccccc1 [compound 419, 6-[(E)-styryl]-3-(2-thienyl)imidazo[1,2-a]pyrazine] has an Emax of 20 to 50%. For O=C(NCCO)c1cccc(-c2cn3c(-c4cccs4)cnc3cn2)c1 [compound 420, N-(2-hydroxyethyl)-3-[3-(2-thienyl)imidazo[1,2-a]pyrazin-6-yl]benzamide], the Emax was 20 to 50%. Clc1cccc(-c2cn3c(-c4cccs4)cnc3cn2)c1 [compound 421, 6-(3-chlorophenyl)-3-(2-thienyl)imidazo[1,2-a]pyrazine] gave an Emax of 20 to 50%. OCc1ccc(-c2cn3c(-c4cccs4)cnc3cn2)cc1 [compound 422, [4-[3-(2-thienyl)imidazo[1,2-a]pyrazin-6-yl]phenyl]methanol] was tested, and the Emax was 20 to 50%. For O=C(NCCO)c1ccc(-c2cn3c(-c4cccs4)cnc3cn2)cc1 [compound 423, N-(2-hydroxyethyl)-4-[3-(2-thienyl)imidazo[1,2-a]pyrazin-6-yl]benzamide], the Emax was 10 to 20%. c1csc(-c2cn3c(-c4cccs4)cnc3cn2)c1 [compound 424, 3,6-bis(2-thienyl)imidazo[1,2-a]pyrazine] showed an Emax of 50 to 100%. Work on CS(=O)(=O)Nc1cccc(-c2cn3c(-c4cccs4)cnc3cn2)c1 [compound 425, N-[3-[3-(2-thienyl)imidazo[1,2-a]pyrazin-6-yl]phenyl]methanesulfonamide] yielded an Emax of 20 to 50%. COc1cc(OC)cc(-c2cn3c(-c4cccs4)cnc3cn2)c1 [compound 426, 6-(3,5-dimethoxyphenyl)-3-(2-thienyl)imidazo[1,2-a]pyrazine] showed an Emax of 20 to 50%. For Nc1ccc(-c2cn3c(-c4cccs4)cnc3cn2)cn1 [compound 427, 5-[3-(2-thienyl)imidazo[1,2-a]pyrazin-6-yl]pyridin-2-amine], the Emax was 20 to 50%. Compound CC(C)Oc1cccc(-c2cn3c(-c4cccs4)cnc3cn2)c1 [compound 428, 6-(3-isopropoxyphenyl)-3-(2-thienyl)imidazo[1,2-a]pyrazine] has an Emax of 20 to 50%. Compound CN1CCN(c2ccc(-c3cn4c(-c5ccc(C(=O)N(C)C)cc5)cnc4cn3)cn2)CC1 [compound 429, N,N-dimethyl-4-[6-[6-(4-methylpiperazin-1-yl)-3-pyridyl]imidazo[1,2-a]pyrazin-3-yl]benzamide] has an Emax of 20 to 50%. CN(C)C(=O)c1ccc(-c2cnc3cnc(-c4ccccc4Oc4ccccc4)cn23)cc1 [compound 430, N,N-dimethyl-4-[6-(2-phenoxyphenyl)imidazo[1,2-a]pyrazin-3-yl]benzamide] showed an Emax of 20 to 50%. In the case of CN(C)C(=O)c1ccc(-c2cnc3cnc(-c4ccsc4)cn23)cc1 [compound 431, N,N-dimethyl-4-[6-(3-thienyl)imidazo[1,2-a]pyrazin-3-yl]benzamide], the Emax is reported as 20 to 50%. Work on CC(=O)Nc1cccc(-c2cn3c(-c4ccc(C(=O)N(C)C)cc4)cnc3cn2)c1 [compound 432, 4-[6-(3-acetamidophenyl)imidazo[1,2-a]pyrazin-3-yl]-N,N-dimethyl-benzamide] yielded an Emax of 20 to 50%. Compound CN(C)C(=O)c1ccc(-c2cnc3cnc(-c4ccc5c(ccn5C)c4)cn23)cc1 [compound 433, N,N-dimethyl-4-[6-(1-methylindol-5-yl)imidazo[1,2-a]pyrazin-3-yl]benzamide] has an Emax of 20 to 50%. CC(=O)c1ccc(-c2cn3c(-c4ccc(C(=O)NC5CC5)cc4)cnc3cn2)s1 [compound 434, 4-[6-(5-acetyl-2-thienyl)imidazo[1,2-a]pyrazin-3-yl]-N-cyclopropyl-benzamide] was tested, and the Emax was 20 to 50%. In the case of CC(C)N1CCN(c2ccc(-c3cn4c(-c5ccc(C(=O)NC6CC6)cc5)cnc4cn3)cc2)CC1 [compound 435, N-cyclopropyl-4-[6-[4-(4-isopropylpiperazin-1-yl)phenyl]imidazo[1,2-a]pyrazin-3-yl]benzamide], the Emax is reported as 20 to 50%. In the case of COc1cc(OC)cc(-c2cnc3cnc(-c4ccccc4N(C)C)cn23)c1 [compound 436, 2-[3-(3,5-dimethoxyphenyl)imidazo[1,2-a]pyrazin-6-yl]-N,N-dimethylaniline], the Emax is reported as 20 to 50%. COc1cc(OC)cc(-c2cnc3cnc(-c4cccc(OC(C)C)c4)cn23)c1 [compound 437, 3-(3,5-dimethoxyphenyl)-6-(3-isopropoxyphenyl)imidazo[1,2-a]pyrazine] was tested, and the Emax was 20 to 50%. Cn1cc(-c2cnc3cnc(-c4ccncc4)cn23)cn1 [compound 438, 3-(1-methylpyrazol-4-yl)-6-(4-pyridyl)imidazo[1,2-a]pyrazine] showed an Emax of 20 to 50%. Cn1cc(-c2cnc3cnc(-c4cc5ccccc5s4)cn23)cn1 [compound 439, 6-(benzothiophen-2-yl)-3-(1-methylpyrazol-4-yl)imidazo[1,2-a]pyrazine] showed an Emax of 20 to 50%. Work on COc1cc(-c2cn3c(-c4ccc5ncccc5c4)cnc3cn2)cc(OC)c1OC [compound 440, 6-[6-(3,4,5-trimethoxyphenyl)imidazo[1,2-a]pyrazin-3-yl]quinoline] yielded an Emax of 20 to 50%. Work on COc1cc(-c2cn3c(-c4ccc5ncccc5c4)cnc3cn2)ccc1O [compound 441, 2-methoxy-4-[3-(6-quinolyl)imidazo[1,2-a]pyrazin-6-yl]phenol] yielded an Emax of 20 to 50%. Cc1cc(-c2cn3c(-c4ccc5ncccc5c4)cnc3cn2)cc(C)c1O [compound 442, 2,6-dimethyl-4-[3-(6-quinolyl)imidazo[1,2-a]pyrazin-6-yl]phenol] was tested, and the Emax was 20 to 50%. Cn1ccc2cc(-c3cn4c(-c5ccc6ncccc6c5)cnc4cn3)ccc21 [compound 443, 6-[6-(1-methylindol-5-yl)imidazo[1,2-a]pyrazin-3-yl]quinoline] gave an Emax of no less than 100%. Work on CS(=O)(=O)Nc1cccc(-c2cn3c(-c4ccc5ncccc5c4)cnc3cn2)c1 [compound 444, N-[3-[3-(6-quinolyl)imidazo[1,2-a]pyrazin-6-yl]phenyl]methanesulfonamide] yielded an Emax of 20 to 50%.

These compounds were tested on beta-TC6 cell system (assay: Comparison of insulin release with commercially available inhibitors, mouse/rat insulin ELISA). Conditions: 2 h; concentration not given.
Assay type: cell-based
Experimental: Based on literature references, several commercially available inhibitors were compared with compounds according to the invention. […] Cells were cultured for 24 h before treated with the inventive compounds and control inhibitors for 2 h at 37 °C and 5 % (v/v) CO2. Insulin in the supernatant was detected by mouse/rat insulin ELISA.
With COc1ccc(Cl)cc1C(=O)NCCc1ccc(S(=O)(=O)NC(=O)NC2CCCCC2)cc1 [Glibenclamide, reference compound] the “effect on insulin release” value was “no effect”. For CCCCNC(=O)NS(=O)(=O)c1ccc(C)cc1 [Tolbutamide, reference compound], the “effect on insulin release” value was “no effect”.

Same assay, conditions: Mus musculus, Beta-TC6; 5µM, 2 h; DMSO = 0; Table 9
Compound NC(=O)c1ccc(-c2cnc3ccc(Cc4ccccc4)nn23)cc1 [compound 2, 4-(6-benzylimidazo[1,2-b]pyridazin-3-yl)benzamide] has an activation at 5 µM of 65.7%.

Same assay, conditions: Mus musculus, Beta-TC6; 10µM, 2 h; DMSO = 0; Table 9
O=C1C(Cl)=C(N2C(=O)CCC2=O)C(=O)c2ccccc21 [MEK, reference compound] gave an activation at 10 µM of 67.3%.
